# Source: patent US6123964A, “Wet granulation formulation of a growth hormone secretagogue” (priority 1998, dated 2000)
# Structures can show the parent of a compound that is named as a salt.
# Legend:
# [1] = Hygroscopicity of wet crystals; format: physicochemical; settings: wet crystals during filtration
# Method: The volume of the solution of 15 from the previous step was adjusted to 60 L with ethyl acetate and EtOH (4.8 L) was added. The MsOH (316 mL) was added in 3 L of EtOAc at 45° C. To the deep red homogeneous solution was added 496 g of the title compound Form I seed (10% seed based on the weight of the free amine was employed). The temperature rose to ca. 48° C. and the reaction was aged at 52° C. for 1.5 hours. Analysis indicated complete conversion to the title compound (Form I). (At less than 10% seed longer age (>3 hours) was required). The slurry was allowed to cool to 20° C. overnight and was filtered in a centrifuge under N2. The cake was washed with 20 L of 8% EtOH in EtOAc. […] The batch was dried at 35° C. under vacuum to afford 2.7Kg (56% overall yield) of the title compound (Form I) (99.9 A % purity; <0.1% enantiomer).
# [2] = Stability of the compound in standard pharmaceutical formulations; format: physicochemical
# growth hormone = experiment: Growth hormone secretagogue assay described by Smith, et al., Science, 260, 1640-1643 (1993); format: cell-based; settings: assay of Smith et al., Science 1993
# Text: Such a result is indicative of the activity of the formulation of the present invention as a growth hormone secretagogue.
# [3] = Flow properties of bulk drug; format: physicochemical; settings: as a bulk drug
# physchem = format: physicochemical; settings: solid state, initial compound present
# Method: As a mimic of the tablet formulation process, a concentrated solution of N-[1(R)-[(1,2-dihydro-1-methanesulfonylspiro[3H-indole-3,4'-piperdin]-1'-yl)carbonyl]-2-(phenylmethyloxy)ethyl]-2-amino-2-methylpropanamide methanesulfonate (118 mg) in 120 μL 25% aqueous ethanol (980 mg/ml) was evaporated at 40° C. to give a solid. The lack of crystallinity was confirmed by X-ray analysis.
# After 12 weeks at 40° C., 100% of the initial compound was present; after 12 weeks at 60° C., 99.7% of the initial compound was present; after 12 weeks at 80° C., 97.8% of the initial compound was present.
structure (smiles),measurement,setting,value
"CC(C)(N)C(=O)N[C@H](COCc1ccccc1)C(=O)N1CCC2(CC1)CN(S(C)(=O)=O)c1ccccc12 [Compound 16, N-[1(R)-[(1,2-Dihydro-1-methanesulfonylspiro[3H-indole-3,4'-piperdin]-1'-yl)carbonyl]-2-(phenylmethyloxy)ethyl]-2-amino-2-methylpropanamide mesylate]",hygroscopicity,[1],very hygroscopic
"CC(C)(N)C(=O)N[C@H](COCc1ccccc1)C(=O)N1CCC2(CC1)CN(S(C)(=O)=O)c1ccccc12 [active ingredient, N-[1(R)-[(1,2-dihydro-1-methane-sulfonyl-spiro[3H-indole-3,4'-piperdin]-1'-yl)carbonyl)-2-(phenyl-methyl-oxy)ethyl]-2-amino-2-methyl-propanamide]",stability in standard pharmaceutical formulations,[2],relatively unstable
same,activity as a growth hormone secretagogue,growth hormone,had activity as a growth hormone secretagogue
same,flow properties,[3],poor flow properties
"CC(C)(N)C(=O)N[C@H](COCc1ccccc1)C(=O)N1CCC2(CC1)CN(S(C)(=O)=O)c1ccccc12 [amorphous form, N-[1(R)-[(1,2-dihydro-1-methanesulfonylspiro[3H-indole-3,4'-piperdin]-1'-yl)carbonyl]-2-(phenylmethyloxy)ethyl]-2-amino-2-methylpropanamide methanesulfonate]",remaining at 2016 h,physchem,100%
